Laboratory results as given in patent US5053329A, “Process for preparation of novel angiotensin II antagonists” (Merck & Co., Inc., priority 1991, dated 1991).

Target: T1, angiotensin II receptor (rabbit aortae membrane preparation) (Oryctolagus cuniculus, UniProt P34976)
T1 sequence (P34976 1-359): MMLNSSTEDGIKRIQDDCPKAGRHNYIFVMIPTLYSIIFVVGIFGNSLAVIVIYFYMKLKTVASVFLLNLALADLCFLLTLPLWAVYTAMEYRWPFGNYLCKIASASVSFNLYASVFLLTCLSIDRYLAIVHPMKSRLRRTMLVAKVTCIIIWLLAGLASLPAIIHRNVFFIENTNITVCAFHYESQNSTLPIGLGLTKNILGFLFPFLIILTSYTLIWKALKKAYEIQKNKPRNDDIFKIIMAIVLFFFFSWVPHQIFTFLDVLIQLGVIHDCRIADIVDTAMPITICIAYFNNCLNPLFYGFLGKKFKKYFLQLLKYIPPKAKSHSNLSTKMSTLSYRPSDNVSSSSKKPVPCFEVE
Assay: Receptor binding assay using rabbit aortae membrane preparation (displacement of 125I-Sar1 Ile8-angiotensin II)
Settings: result in words
Procedure: This assay is also referred to herein as the "IC50 " assay.
RECEPTOR BINDING ASSAY USING RABBIT AORTAE MEMBRANE PREPARATION
Three frozen rabbit aortae (obtained from Pel-Freeze Biologicals) were suspended in 5 mM Tris-0.25M Sucrose, pH 7.4 buffer (50 ml) homogenized, and then centrifuged. The mixture was filtered through a cheesecloth and the supernatant was centrifuged for 30 minutes at 20,000 rpm at 4° C. The pellet thus obtained was resuspended in 30 ml of 50 mM Tris-5 mM MgCl2 buffer containing 0.2% Bovine Serum Albumin and 0.2 mg/ml Bacitration and the suspension was used for 100 assay tubes. Samples tested for screening were done in duplicate. To the membrane preparation (0.25 ml) there was added ^125 I-Sar^1 Ile^8 -angiotensin II [obtained from New England Nuclear] (10 ul; 20,000 cpm) with or without the test sample and the mixture was incubated at 37° C. for 90 minutes. The mixture was then diluted with ice-cold 50 mM Tris-0.9% NaCl, pH 7.4 (4 ml) and filtered through a glass fiber filter (GF/B Whatman 2.4" diameter). The filter was soaked in scintillation cocktail (10 ml) and counted for radioactivity using Packard 2660 Tricarb liquid scintillation counter. […]

| A II antagonist activity by the IC50 assay | Structure (SMILES) |
| --- | --- |
| exhibit A II antagonist activity | CCCc1nc2c(CO)ccnc2n1Cc1ccc(-c2ccccc2-c2nnn[nH]2)cc1 [7-HOCH2 - oxidation product] |
| exhibit A II antagonist activity | CCCc1nc2c(C)c(O)cnc2n1Cc1ccc(-c2ccccc2-c2nnn[nH]2)cc1 [6-HO-oxidation product] |
